“And” between values parts separate entries of the source, which are not always exact repeats. Equal entries are not always repeated.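 Following 48 hours of exposure in 96-well plates, responses at five concentrations were used to interpolate endpoints linearly. Here, GI50 denotes the concentration required for 50% inhibition of growth. The concentration for full growth arrest is given as TGI.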
Experiments:
Experiment in all cases: DTP human tumour cell line panel, 48 h
UO-31 renal = system: UO-31 renal
SF-539 CNS = system: SF-539 CNS
SK-OV-3 ovarian = system: SK-OV-3 ovarian
BT-549 breast = system: BT-549 breast
HCT-116 colon = system: HCT-116 colon
NCI-H23 lung = system: NCI-H23 lung
786-0 renal = system: 786-0 renal
IGROV1 ovarian = system: IGROV1 ovarian
MDA-MB-435 = system: MDA-MB-435
SR leukemia = system: SR leukemia

SMILES	GI50 (UO-31 renal)	TGI (UO-31 renal)	GI50 (SF-539 CNS)	TGI (SF-539 CNS)	GI50 (SK-OV-3 ovarian)	TGI (SK-OV-3 ovarian)	GI50 (BT-549 breast)	TGI (BT-549 breast)	GI50 (HCT-116 colon)	TGI (HCT-116 colon)	GI50 (NCI-H23 lung)	TGI (NCI-H23 lung)	GI50 (786-0 renal)	TGI (786-0 renal)	GI50 (IGROV1 ovarian)	TGI (IGROV1 ovarian)	GI50 (MDA-MB-435)	TGI (MDA-MB-435)	TGI (SR leukemia)	GI50 (SR leukemia)
COc1cccc(Sc2ccc([N+](=O)[O-])c3no[n+]([O-])c23)c1	2.27 µM	7.74 µM	14.7 µM	28.1 µM	29.8 µM	> 77.7 µM	8.06 µM	22.1 µM	3.7 µM	14.4 µM	7.14 µM	25 µM	19.5 µM	34.8 µM	5.63 µM	20.8 µM	13.4 µM	43.1 µM	–	–
CCCN(CCC)CCc1cc(C(C)=O)n(S(=O)(=O)c2ccc(C)cc2)c1	–	> 100 µM	–	> 100 µM	–	> 100 µM	–	–	–	> 100 µM	–	> 100 µM	–	> 100 µM	–	> 100 µM	–	–	> 100 µM	–
O=C(O)CNc1ccc(Cl)c(Cl)c1	–	71.1 µM	–	> 100 µM	–	> 100 µM	–	> 100 µM	–	44.7 µM	–	> 100 µM	–	92.6 µM	–	26.3 µM	–	79.2 µM	–	–
CCN(CC)CCC(=O)OC1C(C)=CC(C)C(=O)CC(C(C)CC2CCC(O)C(OC)C2)OC(=O)C2CCCCN2C(=O)C(=O)[C@@]2(O)OC(CCC2C)CC(OC)\C(C)=C/C=C/C=C/C(C)CC(C)C(=O)C1OC (stereo not given in full)	–	–	–	15.2 µM	–	19.4 µM	–	15.5 µM	–	20.1 µM	–	26.4 µM	–	22.4 µM	–	14.7 µM	–	21.2 µM	–	–
CC(C)(CN1CCOCC1)C(=O)/C=C/c1ccc(/C=C/C(=O)C(C)(C)CN2CCOCC2)cc1	–	3.15 µM	–	3.69 µM	–	39.8 µM	–	–	–	1.62 µM	–	–	–	4.11 µM	–	4.47 µM	–	–	–	–
Cc1cc(Br)cc(C)c1NC(=O)C(=O)C(C(=O)c1ccncc1)C1OC(=O)c2ccccc21 (stereo not given)	–	> 100 µM	–	–	–	> 100 µM	–	–	–	> 100 µM	–	> 100 µM	–	> 100 µM	–	> 100 µM	–	–	> 100 µM	–
Cc1c(NC(=O)CCl)c(=O)oc2c(C)c3occc(=O)c3cc12	–	22.4 µM	–	–	–	32.8 µM	–	–	–	25.9 µM	–	–	–	32.4 µM	–	31.2 µM	–	–	58 µM	–
NCCOCn1cc(Cc2cccc(OCc3ccccc3)c2)c(=O)[nH]c1=O	–	> 100 µM	–	> 100 µM	–	> 100 µM	–	–	–	> 100 µM	–	> 100 µM	–	> 100 µM	–	> 100 µM	–	–	–	–
COC1CC(C)C(OC)c2cc(O)cc(c2O)NC(=O)/C(C)=C/C=C\C(C)C(OC(N)=O)/C(C)=C\C(C)C1OC (stereo not given)	8.32 µM	17.4 µM and 15.6 µM	0.271 µM	10.2 µM and 8.61 µM	0.171 µM	8.02 µM and 14.7 µM	–	–	0.0642 µM and 0.571 µM	8.1 µM and 9.01 µM	0.169 µM and 0.179 µM	5.59 µM and 4.37 µM	4.62 µM	11.5 µM and 24.3 µM	0.273 µM and 0.506 µM	15.9 µM and 8 µM	–	32.2 µM and 6.1 µM	2 µM and 6.31 µM	0.191 µM and 0.11 µM
S=c1nc(C(c2ccccc2)c2ccccc2)[nH][nH]1	–	> 100 µM	–	> 100 µM	–	> 100 µM	–	–	–	> 100 µM	–	> 100 µM	–	> 100 µM	–	> 100 µM	–	–	–	–
O=c1/c(=C/c2c(O)ccc3ccccc23)sc2nc3ccccc3n12	–	> 100 µM	–	> 100 µM	–	> 100 µM	–	–	–	> 100 µM	–	> 100 µM	–	> 100 µM	–	> 100 µM	–	–	–	–
CCNc1cc2oc(=O)cc(C(F)(F)F)c2cc1C	–	> 100 µM	–	> 100 µM	–	> 100 µM	–	> 100 µM	–	> 100 µM	–	> 100 µM	–	> 100 µM	–	> 100 µM	–	> 100 µM	–	–
O=c1nc(NC(c2ccccc2)(c2ccccc2)c2ccccc2)ccn1CCCl	–	> 100 µM	–	31.7 µM	–	–	–	–	–	37.1 µM	–	56 µM	–	32 µM	–	48.1 µM	–	–	49.5 µM	–
CSC(=Nc1ccccc1Cl)NC(=O)c1ccc(Br)cc1	–	> 100 µM	–	> 100 µM	–	> 100 µM	–	–	–	> 100 µM	–	> 100 µM	–	86.3 µM	–	> 100 µM	–	–	> 100 µM	–
Cc1ccc(-c2c(C#N)[n+](=O)c3cc(F)c(F)cc3n2[O-])cc1	9.79 µM	37.7 µM	15.3 µM	33.9 µM	–	–	18.5 µM	33.7 µM	1.23 µM	5.21 µM	2.33 µM	6.47 µM	1.54 µM	3.53 µM	3.59 µM	> 100 µM	2.27 µM	5.95 µM	–	–
CCO/C(CCn1[nH]c(=O)c(Cl)c(Cl)c1=O)=N\NC(=O)C(=O)NN	–	> 100 µM	–	> 100 µM	–	> 100 µM	–	–	–	–	–	> 100 µM	–	> 100 µM	–	> 100 µM	–	–	–	–
Cc1cc(C)nc(NS(=O)(=O)c2ccc(Nc3c4ccccc4nc4c(C(=O)Nc5ccc(S(=O)(=O)Nc6cc(C)on6)cc5)ccc(Cl)c34)cc2)n1	–	45.3 µM	–	53 µM	–	> 100 µM	–	–	–	40.5 µM	–	59.7 µM	–	34.1 µM	–	–	–	–	53.8 µM	–
O=C1NC(=O)C(=Cc2c3ccccc3cc3ccccc23)C(=O)N1	–	> 100 µM	–	> 100 µM	–	> 100 µM	–	–	–	> 100 µM	–	> 100 µM	–	> 100 µM	–	> 100 µM	–	–	–	–
CC(=O)O[C@@]12CO[C@@H]1C[C@H](O)[C@@]1(C)C(=O)[C@H](O)C3=C(C)[C@@H](OC(=O)[C@H](O)[C@@H](NC(=O)OC(C)(C)C)c4ccccc4)C[C@@](O)([C@@H](OC(=O)c4ccccc4)C12)C3(C)C (stereo not given in full)	0.372 µM and 0.192 µM	50 µM and 81.8 µM	< 0.005 µM	19.3 µM and 22.9 µM	< 0.005 µM	50 µM and 72.6 µM	–	0.0338 µM	< 0.005 µM	50 µM and > 100 µM	< 0.005 µM	50 µM	0.00549 µM	50 µM	0.0357 µM	> 100 µM	–	–	46.3 µM and 14.7 µM	< 0.005 µM
Cc1ccc(NC(=O)C(=O)C(C(=O)c2ccc3ccccc3c2)C2OC(=O)c3ccccc32)c(C)c1 (stereo not given)	–	36.7 µM	–	19.4 µM	–	60.4 µM	–	–	–	20.1 µM	–	37.2 µM	–	19.7 µM	–	39.9 µM	–	–	–	–
CC(C)=O.O=C([O-])C(F)(F)F.O=C([O-])C(F)(F)F.O=C([O-])C(F)(F)F.O=C([O-])C(F)(F)F.[Rh+2].[Rh+2]	> 100 µM	> 100 µM	> 100 µM	> 100 µM	> 100 µM	> 100 µM	–	–	54 µM	> 100 µM	46.7 µM	> 100 µM	71.5 µM	> 100 µM	> 100 µM	> 100 µM	–	–	> 100 µM	22.2 µM

— PubChem BioAssay (NCI)
